Results on 31 molecules are retold here after patent publication US20060004197A1, “Sulfonamide-based compounds as protein tyrosine kinase inhibitors” (priority 2004, published 2006).

For the first experiment, the target named is T1, Recombinant human Src (Homo sapiens, UniProt P12931).
T1 construct: made in house; host or cells: baculovirus-insect cell system
T1 sequence (P12931 whole entry): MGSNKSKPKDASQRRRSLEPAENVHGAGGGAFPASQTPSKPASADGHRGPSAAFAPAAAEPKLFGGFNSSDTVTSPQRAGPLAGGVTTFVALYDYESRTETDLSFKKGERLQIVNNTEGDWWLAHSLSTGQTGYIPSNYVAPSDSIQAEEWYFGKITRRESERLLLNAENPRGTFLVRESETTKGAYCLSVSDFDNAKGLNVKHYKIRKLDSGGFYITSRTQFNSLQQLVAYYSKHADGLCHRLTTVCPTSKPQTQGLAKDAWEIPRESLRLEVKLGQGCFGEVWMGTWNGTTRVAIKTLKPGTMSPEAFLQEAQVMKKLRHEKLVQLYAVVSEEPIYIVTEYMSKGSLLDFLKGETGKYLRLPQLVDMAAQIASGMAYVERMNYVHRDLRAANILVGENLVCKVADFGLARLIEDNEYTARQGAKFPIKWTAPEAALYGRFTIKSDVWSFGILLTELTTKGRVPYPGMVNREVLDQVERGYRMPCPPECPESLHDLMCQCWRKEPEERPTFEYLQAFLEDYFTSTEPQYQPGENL
The experiment in a line: Src tyrosine kinase activity, poly E4Y / 32P-ATP phosphorylation assay. As to conditions: Table 2, Formula I compounds; NI = no inhibition at 100 μg/mL. In kind it is biochemical. The protocol:
Recombinant human Src was expressed using the baculovirus-insect cell system and purified as published (Budde et al., 1993 and 2000).
The tyrosine kinase activity of Src, Csk and FGFr was determined using poly E4Y and ^32P-ATP. Briefly, enzymes were assayed in a reaction mixture consisting of 0.15 M EPPS-NaOH (pH 8.0) with 6 mM MgCl2, 0.2 mM γ^32P-ATP (0.2-0.4 mCi/μmol), 10% glycerol, 0.1% Triton X-100, and poly E4Y. Poly E4Y is a synthetic peptide whose phosphorylation is measured in this assay by the addition of the radioactively labeled phosphate from the ATP (Budde et al., 1995). […] When ATP was varied (0, 50, 100 and 250 μM), poly E4Y was kept constant at 150 μg/ml.
In the case of `Cc1ccc(S(=O)(=O)Nc2cc(NCc3ccccc3Cl)c([N+](=O)[O-])cc2NS(=O)(=O)c2ccc(C)cc2)cc1` [Compound 9g, N-[4-(2-chloro-benzylamino)-5-nitro-2-(4-toluenesulfonylamino)-phenyl]-4-toluenesulfonamide], the IC50 worked out at 54 µM.

Staying with this experiment, now noted: Table 2; compound at 15 ug/mL; read-out: % Inhibition at 15 ug/mL Src (%).
As to `Cc1ccc(S(=O)(=O)Nc2cc(NCC3(O)CCCCC3)c([N+](=O)[O-])cc2NS(=O)(=O)c2ccc(C)cc2)cc1` [Compound 9i, N-[4-(1-hydroxy-cyclohexylmethyl-amino)-5-nitro-2-(4-toluenesulfonylamino)-phenyl]-4-toluenesulfonamide], the inhibition at 15 µg/mL worked out at 18%.

Regarding `COc1ccc(CNc2cc(NS(=O)(=O)c3ccc(C)cc3)c(NS(=O)(=O)c3ccc(C)cc3)cc2[N+](=O)[O-])cc1` [Compound 9f, N-[4-(4-methoxy-benzylamino)-5-nitro-2-(4-toluenesulfonylamino)-phenyl]-4-toluenesulfonamide], the inhibition at 15 µg/mL is 17%. Still for that read-out and setting: to `Cc1ccc(S(=O)(=O)Nc2cc(NCC3CCCCC3)c([N+](=O)[O-])cc2NS(=O)(=O)c2ccc(C)cc2)cc1` [Compound 9h, N-[4-(cyclohexylmethyl-amino)-5-nitro-2-(4-toluenesulfonylamino)-phenyl]-4-toluenesulfonamide] belongs 22%; to `Cc1ccc(S(=O)(=O)Nc2cc(NCc3ccccc3Cl)c([N+](=O)[O-])cc2NS(=O)(=O)c2ccc(C)cc2)cc1` [Compound 9g, N-[4-(2-chloro-benzylamino)-5-nitro-2-(4-toluenesulfonylamino)-phenyl]-4-toluenesulfonamide], 65%.

As for `Cc1ccc(S(=O)(=O)Nc2cc(N3CCN(C)CC3)c([N+](=O)[O-])cc2NS(=O)(=O)c2ccc(C)cc2)cc1` [Compound 9b, N-[4-(4-methyl-piperazin-1-yl)-5-nitro-2-(4-toluenesulfonylamino)-phenyl]-4-toluenesulfonamide], the inhibition at 15 µg/mL stood at 2%.

The same experiment, now with this note: Table 3, Formula II compounds; NI = no inhibition at 100 μg/mL.
For `COc1ccc(Oc2ccc(NS(=O)(=O)c3ccc(Br)s3)c(NS(=O)(=O)c3ccc(C)cc3)c2)cc1` [Compound 22bb, N-[4-(4-methoxy-phenoxy)-2-(4-toluenesulfonylamino)-phenyl]-5-bromo-thiophene-2-sulfonamide], the IC50 worked out at 19.5 µM. Take `COc1ccc(Oc2ccc(NS(=O)(=O)c3cccc(OC)c3)c(NS(=O)(=O)c3ccc(C)cc3)c2)cc1` [Compound 22aa, 3-methoxy-N-[4-(4-methoxy-phenoxy)-2-(4-toluenesulfonylamino)-phenyl]-benzenesulfonamide]: the half-inhibitory concentration (IC50) came out at 133 µM. Regarding `COc1ccc(Oc2ccc(NS(=O)(=O)c3ccc(S(C)(=O)=O)cc3)c(NS(=O)(=O)c3ccc(C)cc3)c2)cc1` [Compound 22z, 4-methanesulfonyl-N-[4-(4-methoxy-phenoxy)-2-(4-toluenesulfonylamino)-phenyl]-benzenesulfonamide], the half-maximal inhibitory concentration (IC50) stood at 174 µM.

With `Cc1ccc(S(=O)(=O)Nc2ccc(C(=O)NCc3cccc4ccccc34)cc2NS(=O)(=O)c2ccc(C)cc2)cc1` [Compound 22g, N-naphthalen-1-ylmethyl-3,4-bis-(4-toluenesulfonylamino)-benzamide], the IC50 worked out at 18 µM. With `Cc1ccc(S(=O)(=O)Nc2ccc(C(=O)Nc3ccccc3)cc2NS(=O)(=O)c2ccc(C)cc2)cc1` [Compound 22e, N-phenyl-3,4-bis-(4-toluenesulfonylamino)-benzamide], the half-maximal inhibitory concentration (IC50) was 149 µM.

Staying with this experiment, now noted: Table 3; compound at 15 μg/mL; read-out: % Inhibition at 15 μg/mL Src (%).
For the molecule `COC(=O)c1c(S(=O)(=O)Nc2ccc(Oc3ccc(OC)cc3)cc2NS(=O)(=O)c2ccc(C)cc2)c(C)n(C)c1C` [Compound 22w, methyl 4-[4-(4-methoxy-phenoxy)-2-(4-toluenesulfonylamino)-phenylsulfamoyl]-1,2,5-trimethyl-1H-pyrrole-3-carboxylate], the inhibition at 15 µg/mL stood at 6%. With `COc1ccc(Oc2ccc(NS(=O)(=O)c3ccc(C)cc3)c(NS(C)(=O)=O)c2)cc1` [Compound 22m, N-[2-methanesulfonylamino-4-(4-methoxy-phenoxy)-phenyl]-4-toluenesulfonamide], the inhibition at 15 µg/mL is 22%.

As to `COc1ccc(Oc2ccc(NS(=O)(=O)c3ccc(C)cc3)c(NS(=O)(=O)c3cn(C)cn3)c2)cc1` [Compound 22o, N-[5-(4-methoxy-phenoxy)-2-(4-toluenesulfonylamino)-phenyl]-1-methyl-1H-imidazole-4-sulfonamide], the inhibition at 15 µg/mL turned out to be 0%.

Regarding `Cc1ccc(S(=O)(=O)Nc2ccc(NS(=O)(=O)c3cccs3)cc2NS(=O)(=O)c2ccc(C)cc2)cc1` [Compound 22i, N-[3,4-bis-(4-toluenesulfonylamino)-phenyl]-thiophene-2-sulfonamide], the inhibition at 15 µg/mL was 26%. Regarding `Cc1ccc(S(=O)(=O)Nc2cc(SCc3ccccc3Cl)ccc2NS(C)(=O)=O)cc1` [Compound 22ll, N-[5-(2-chloro-benzylsulfanyl)-2-methanesulfonylamino-phenyl]-4-toluenesulfonamide], the inhibition at 15 µg/mL turned out to be 17%. Same read-out and setting: to `Cc1ccc(S(=O)(=O)Nc2ccc(C(=O)Nc3cccnc3)cc2NS(=O)(=O)c2ccc(C)cc2)cc1` [Compound 22d, N-pyridin-3-yl-3,4-bis-(4-toluenesulfonylamino)-benzamide] belongs 0%.

Still in this experiment, the particulars now being: Table 3; compound at 50 μg/mL (starred values); read-out: % Inhibition Src (%), * = assayed at 50 μg/mL.
With `Cc1ccc(S(=O)(=O)Nc2ccc(OCCCCCO)cc2NS(=O)(=O)c2ccc(C)cc2)cc1` [Compound 12s, N-[4-(5-hydroxy-pentyloxy)-2-(4-toluenesulfonylamino)-phenyl]-4-toluenesulfonamide], the inhibition at 50 µg/mL amounted to 9%.

Still in this experiment, the particulars now being: Table 4, Formula III compounds; NI = no inhibition at 100 μg/mL.
As to `COc1ccc(Oc2cc(NS(=O)(=O)c3ccc(C)cc3)c(NS(=O)(=O)c3ccc(C)cc3)cc2C)cc1` [Compound 37, N-[4-(4-methoxy-phenoxy)-5-methyl-2-(4-toluenesulfonylamino)-phenyl]-4-toluenesulfonamide], the IC50 came to 118 µM. Same read-out and setting: to `COc1ccc(Oc2cc(NS(=O)(=O)c3ccc(C)cc3)c(NS(=O)(=O)c3ccc(C)cc3)cc2C(=O)O)cc1` [Compound 34, 2-(4-methoxy-phenoxy)-4,5-bis-(4-toluenesulfonylamino)-benzoic acid] belongs 77 µM.

Still in this experiment, the particulars now being: Table 6, Formula V compounds; compound at 15 μg/mL; read-out: % Inhibition at 15 μg/mL Src (%).
On to `COc1ccc(Oc2ccc3c(c2)[nH]c(=O)n3S(=O)(=O)c2ccc(C)cc2)cc1` [Compound 72b, 5-(4-methoxy-phenoxy)-1-(4-toluenesulfonyl)-1,3-dihydro-benzoimidazol-2-one], for which the inhibition at 15 µg/mL came out at 19%. On the same count and under the same terms, with `COc1ccc(Oc2ccc3[nH]c(=O)[nH]c3c2)cc1` [Compound 72e, 5-(4-methoxy-phenoxy)-1,3-dihydro-benzoimidazol-2-one] the figure was 4%.

Still in this experiment, the particulars now being: compound at 15 μg/mL; read-out: % Inhibition at 15 μg/mL Src %.
Consider `COc1ccc(Oc2ccc(NC(=O)Cc3ccccc3)c(NS(=O)(=O)c3ccc(C)cc3)c2)cc1` [Compound 71s, N-[4-(4-methoxy-phenoxy)-2-(4-toluenesulfonylamino)-phenyl]-2-phenyl-acetamide], for which the inhibition at 15 µg/mL turned out to be 10%. On the same count and under the same terms, with `COc1ccc(Oc2ccc(N)c(NS(=O)(=O)c3ccc(C)cc3)c2)cc1` [Compound 71a, N-[2-amino-5-(4-methoxy-phenoxy)-phenyl]-4-toluenesulfonamide] the figure was 13%. As for `COc1ccc(Oc2ccc(NS(=O)(=O)c3ccc(C)cc3)c(NC(=O)c3cnc(C)cn3)c2)cc1` [Compound 71h, N-[5-(4-methoxy-phenoxy)-2-(4-toluenesulfonylamino)-phenyl]-5-methyl-pyrazine-2-carboxamide], the inhibition at 15 µg/mL is 0%. On to `COc1ccc(Oc2ccc(NS(=O)(=O)c3ccc(C)cc3)c(NCc3ccc(C)cc3)c2)cc1` [Compound 71hh, N-[4-(4-methoxy-phenoxy)-2-(4-methyl-benzylamino)-phenyl]-4-toluenesulfonamide], for which the inhibition at 15 µg/mL came out at 23%. Still for that read-out and setting: with `Nc1cc(SCc2ccccc2Cl)c([N+](=O)[O-])cc1NS(=O)(=O)c1ccc(Cl)c2nonc12` [Compound 71ll, N-[2-amino-4-(2-chloro-benzylsulfanyl)-5-nitro-phenyl]-7-chloro-benzo[1,2,5]oxadiazole-4-sulfonamide] the figure was 26%; with `COc1ccc(Oc2cc(N)c(NS(=O)(=O)c3ccc(C)cc3)cc2[N+](=O)[O-])cc1` [Compound 71cc, N-[2-amino-4-(4-methoxy-phenoxy)-5-nitro-phenyl]-4-toluenesulfonamide], 15%; with `Cc1ccc(C(=O)Nc2cc(NCC3CCCCC3)c([N+](=O)[O-])cc2NC(=O)c2ccc(C)cc2)cc1` [Compound 71aa, N-[4-(cyclohexylmethyl-amino)-5-nitro-2-(4-toluoylamino)-phenyl]-4-toluamide], 0%. Still for that read-out and setting: with `CCCC(=O)Nc1cc(Oc2ccc(OC)cc2)ccc1NS(=O)(=O)c1ccc(C)cc1` [Compound 71z, N-[5-(4-methoxy-phenoxy)-2-(4-toluenesulfonylamino)-phenyl]-butyramide] the figure was 5%. With `Cc1ccc(C(=O)Nc2cc(NCc3cccc4ccccc34)c([N+](=O)[O-])cc2NC(=O)c2ccc(C)cc2)cc1` [Compound 71bb, N-{4-[(naphthalen-1-ylmethyl)-amino]-5-nitro-2-(4-toluoylamino)-phenyl}-4-toluamide], the inhibition at 15 µg/mL was determined as 22%.

The same experiment, now with this note: poly E4Y / 32P-ATP; Formula IV compounds.
Take `COc1ccc(Oc2ccc(NS(=O)(=O)c3ccc(C)cc3)c(CN)c2)cc1` [Compound 71n, N-[2-aminomethyl-4-(4-methoxy-phenoxy)-phenyl]-4-toluenesulfonamide]: the IC50 is 1300 µM.
